Laboratory results reported in patent US20040028639A1, “Cholesterol sulfate compositions for enhancement of stratum corneum function” (priority 1999, published 2004).
Counter-ions that a name gives are not always drawn.

How the values were obtained:
[1] = tested on: Matek skin equivalents; assay: stratum corneum thickness and cohesion in skin equivalents (histology); assay type: cell-based
Method: FIG. 1 illustrates the condition of stratum corneum thickness under different cholesterol sulfate treatment regimens, as described in Example I: (A) control (no treatment); (B) 1% ethanol vehicle control; (C) cholesterol sulfate, 0.01 μg/ml; (D) cholesterol sulfate, 0.1 μg/ml; (E) cholesterol sulfate, 1 μg/ml; (F) cholesterol sulfate 10 μg/ml.
This example illustrates the ability of cholesterol sulfate to retard desquamation and maintain stratum corneum thickness.
Matek skin equivalents are obtained and prepared for use in accordance with the supplier's protocol. Equilibrated skins are treated topically with dilutions of cholesterol sulfate. Cholesterol sulfate is solubilized 1 mg/ml in ethanol, and serially diluted 10-fold to yield doses of 0.01, 0.1, 1 and 10 μg/ml. Each dose is added topically to an equivalent, using a 100 μl volume. Treatment is repeated daily along with media replacement over a three day period. One sample is treated with 1% ethanol, representing a vehicle control. Following treatment, equivalents are fixed according to standard protocol, and sent for histological preparations. FIGS. 1A-F show stained sections of the two controls plus the treatment samples. […] Some compaction is seen in the ethanol treated sample, which is believed due to dehydration of the sample combined with lipid removal.

[2] = tested on: skin (back of hand), stratum corneum; assay: skin flakiness by D-Squame Discs Method and Image Analysis; assay type: in vivo, human; settings: 0.5% cholesterol sulfate in a water and oil emulsion base, right hand, twice a day
Method: A study is conducted to determine the effect of cholesterol sulfate on skin flakiness, as an indicator of its effect in reducing desquamation. Fifteen subjects between the ages of 21 and 65 years are selected for the study. The subjects report for the study without moisturizers or any other products on their hands and their baseline measurements are taken. The subjects are given a product containing 0.5% cholesterol sulfate in a water and oil emulsion base to take home and self-administer on their right hands only, twice a day in the morning after washing and in the evening at least 15 minutes before bedtime for four weeks. The left hand serves as the untreated control site. The subjects are only allowed to use the test product and specifically log its use in a daily diary. At the end of two and four weeks the subjects return for testing without applying the product for at least 12 hours and they are re-evaluated under the same conditions.
Evaluation of flakiness is determined via the D-Squame Discs Method and Image Analysis. Briefly, four D-Squame discs are firmly pressed on the back of each hand with hand held uniform pressure device and removed by gently pulling away from the skin. […] Desquamation is evaluated from the D-Squame discs via the image analyzer. […]
An OPTIMA image analyzer is used to evaluate skin flakiness. […] The average Gray Value corresponding to the sample density is measured. […]

SMILES: CC(C)CCC[C@@H](C)[C@H]1CC[C@H]2[C@@H]3CC=C4C[C@@H](OS(=O)(=O)O)CC[C@]4(C)[C@H]3CC[C@]12C [cholesterol sulfate]
- organization and cohesion of the stratum corneum (stained sections) ([1]; 0.01, 0.1, 1 and 10 μg/ml, 100 μl topically, daily over three days, vs media control, effect increases with amount): gradual increase in organization and cohesion of the stratum corneum
- thickness of the layers of the stratum corneum ([1]; application to skin cells, FIGS. 1C-F (0.01-10 μg/ml)): distinct, dose-dependent, increase in the thickness
- decrease in flakiness relative to baseline ([2]; after 4 weeks): 24.1%
- decrease in flakiness relative to baseline ([2]; after two weeks): 22.5%
